ChEMBL document CHEMBL1201862, “PubChem BioAssay data set” (2004)
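Assay format: 96-well plates, 48-hour exposure. GI50: concentration for 50% inhibition of growth.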 Active and inactive are the calls of the source. No stated cut-off is given here; in the data, active = GI50 up to about 1.1 µM and inactive = higher.

Columns and labels:
Assay in all cases: inhibition of tumour cell growth, NCI panel, 48 h
[1] = system: A549
[2] = system: ACHN
[3] = system: COLO 205
[4] = system: HCT-116
[5] = system: HL-60
[6] = system: HOP-92
[7] = system: K562
[8] = system: KM12
[9] = system: LOX IMVI
[10] = system: Malme-3M
[11] = system: NCI-H460
[12] = system: OVCAR-5
[13] = system: SK-MEL-28
[14] = system: SK-MEL-2
[15] = system: SK-MEL-5
[16] = system: SK-OV-3
[17] = system: UACC-257
[18] = system: UACC-62
[19] = system: UO-31

SMILES | GI50 [1] | GI50 [2] | GI50 [3] | GI50 [4] | GI50 [5] | GI50 [6] | GI50 [7] | GI50 [8] | GI50 [9] | GI50 [10] | GI50 [11] | GI50 [12] | GI50 [13] | GI50 [14] | GI50 [15] | GI50 [16] | GI50 [17] | GI50 [18] | GI50 [19]
CO[C@H]1[C@@H](O)[C@@H](O)O[C@@H](O[C@H]2CC[C@@]3(C)[C@H](CC[C@@H]4[C@@H]3[C@H](O)C[C@]3(C)[C@@H](C5=CC(=O)OC5)CC[C@]43O)C2)[C@@H]1O | 0.0491 µM (active) | 0.0471 µM (active) | 0.441 µM (active) | 0.178 µM (active) | 0.191 µM (active) | 0.531 µM (active) | 0.175 µM (active) | 0.698 µM (active) | 0.193 µM (active) | 0.198 µM (active) | 0.0895 µM (active) | 0.601 µM (active) | 0.622 µM (active) | 0.299 µM (active) | 0.136 µM (active) | 0.248 µM (active) | 0.382 µM (active) | 0.355 µM (active) | 0.163 µM (active)
COc1ccc(C[C@H](N)C(=O)N2C[C@@H](CO)C[C@@H](n3cnc4c(N(C)C)ncnc43)C2)cc1 | > 100 µM (inactive) |  |  | > 100 µM (inactive) | > 100 µM (inactive) | > 100 µM (inactive) | > 100 µM (inactive) | > 100 µM (inactive) | > 100 µM (inactive) | > 100 µM (inactive) | > 100 µM (inactive) | > 100 µM (inactive) | > 100 µM (inactive) | > 100 µM (inactive) | > 100 µM (inactive) | > 100 µM (inactive) | > 100 µM (inactive) | > 100 µM (inactive) | > 100 µM (inactive)
CC(=O)Oc1c2c(c(O)c3ccccc13)C(n1cnc3c(ncn3C3OC(CO)C4OC(C)(C)OC43)c1=N)CCC2 (stereo not drawn) | 19.1 µM (inactive) | 16.5 µM (inactive) | 16.9 µM (inactive) |  | 4.49 µM (inactive) | 22.6 µM (inactive) | 6.84 µM (inactive) | 14.4 µM (inactive) | 4.81 µM (inactive) | 11.2 µM (inactive) | 23.3 µM (inactive) | 21.2 µM (inactive) | 17.5 µM (inactive) | 15.4 µM (inactive) | 12.1 µM (inactive) | 19 µM (inactive) | 10.2 µM (inactive) | 13.9 µM (inactive) | 16.2 µM (inactive)
FC1OC2OC1C(OCc1ccccc1)C(OCc1ccccc1)C2OCc1ccccc1 (stereo not drawn) | 72.8 µM (inactive) |  | 61.9 µM (inactive) | 25.3 µM (inactive) | 24.9 µM (inactive) | 15.3 µM (inactive) | 25.8 µM (inactive) | 49.1 µM (inactive) | 43.8 µM (inactive) | 48.3 µM (inactive) | > 100 µM (inactive) | > 100 µM (inactive) | 33.4 µM (inactive) | 71.8 µM (inactive) | 45.6 µM (inactive) | > 100 µM (inactive) | 35.5 µM (inactive) | 30.1 µM (inactive) | 36.1 µM (inactive)
CCSCN(C)c1nc(N(C)C)nc(N(C)C)n1 | 55.2 µM (inactive) | > 100 µM (inactive) | 75.2 µM (inactive) | 54.7 µM (inactive) | 29.9 µM (inactive) | 49.2 µM (inactive) | 46.8 µM (inactive) | 35.3 µM (inactive) | 41.3 µM (inactive) | 34.3 µM (inactive) | 39.8 µM (inactive) | > 100 µM (inactive) | 56.4 µM (inactive) | > 100 µM (inactive) | 39.9 µM (inactive) | > 100 µM (inactive) | 43 µM (inactive) | 40.4 µM (inactive) | 41.7 µM (inactive)
O=C(Cc1nc2ccccc2o1)C(=O)Nc1ccccc1C(F)(F)F | > 100 µM (inactive) | > 100 µM (inactive) | > 100 µM (inactive) | > 100 µM (inactive) | > 100 µM (inactive) | > 100 µM (inactive) | > 100 µM (inactive) | > 100 µM (inactive) | > 100 µM (inactive) | > 100 µM (inactive) | > 100 µM (inactive) | > 100 µM (inactive) |  | > 100 µM (inactive) | > 100 µM (inactive) | > 100 µM (inactive) | > 100 µM (inactive) | > 100 µM (inactive) | > 100 µM (inactive)
Nc1nc(CC2(O)CCCCC2)cc(-c2ccccc2)n1 | 26.7 µM (inactive) | 34.4 µM (inactive) | 16.7 µM (inactive) | 19.8 µM (inactive) | 15.6 µM (inactive) | > 44.9 µM (inactive) | 16.6 µM (inactive) | 23.1 µM (inactive) | 40.4 µM (inactive) | > 10 µM (inactive) | 24.3 µM (inactive) | 20.9 µM (inactive) | > 63.2 µM (inactive) | 35.6 µM (inactive) | 24.9 µM (inactive) | > 100 µM (inactive) | 36.3 µM (inactive) | 23.4 µM (inactive) | > 55 µM (inactive)
